Values joined by “and” are separate entries in the source; they are usually repeats but may differ in a detail not shown here. Identical values can stand only once.
What was measured:
[1] = system: KCNK1; assay: KCNK1 expression in the regeneration bud; parameters: species or system Xenopus laevis; conditions: in vivo
Text: We then sought to functionally link V-ATPase activity to gene expression in the regeneration bud. Existing markers include Notch pathway genes^2. […] Because of this, and because the V-ATPase is expressed so soon following amputation, we utilized an earlier marker that is normally expressed by 12 hpa: the K^+ channel KCNK1 (FIG. 14E,E′). In larvae in which V-ATPase activity was abrogated by concanamycin or a function-blocking anti-V-ATPase antibody, KCNK1 expression was absent (N=13, FIG. 14F,F′-G,G′). Thus, V-ATPase is upstream of some gene expression in the regeneration bud, including other ion transporters also specifically expressed during early stages of regeneration.
Larvae were fixed in MEMFA (Sive et al., 2000) and dehydrated in methanol. In situ hybridization was carried out according to standard protocols (Harland, 1991, Xenopus laevis: Practical uses in cell and molecular biology 36: 685-695). The ion transporter constructs used to generate probes for in situ hybridization (ISH) experiments were: Kcnk1 (TWIK-1, BC042262, Open Biosystems), V-ATPase 16 kDa subunit (BE025959, RZPD). Plasmids were used to generate anti-sense riboprobes by in vitro transcription. […] Expression indicated represents consistent consensus patterns obtained from analysis of at least 15 larvae in all experiments. […]

[2] = system: H3P-positive cells; assay: H3P-positive proliferating cell quantification in amputated larvae; assay type: in vivo, Xenopus laevis; conditions: for Average count of H3P-positive cells / Individual counts of H3P-positive cells: medial (flank) region
Text: To gain insight into the cellular mechanisms by which the V-ATPase participates in regeneration, we characterized the pattern of proliferating cells during regeneration, using an antibody to the phosphorylated Histone 3B—a standard marker of cells in the G2/M transition of the cell cycle, useful for identifying mitotic cells in regenerating systems including Xenopus (Saka and Smith, 2001, Dev Biol 229: 307-18; Sanchez Alvarado, 2003, Current Opinion in Genetics & Development 13: 438-444). At 24 hpa, this subset of proliferating cells is homogenously distributed throughout the growing tail (FIG. 14A). […]. […].
H3P staining marks cells in the G2/M transition of the cell cycle, and is commonly used for identifying mitotic cells in regenerating systems including Xenopus (Saka and Smith, 2001, Dev Biol 229: 307-18; Sanchez Alvarado, 2003, Current Opinion in Genetics & Development 13: 438-444). Fixed specimens at the stages indicated were processed for H3P staining as above using an alkaline-phosphatase secondary. Bleaching of the natural pigments in samples allowed easy counting of H3P-positive cells. The close-up panel to the left illustrates the distinction between purple alkaline-phosphatase signal (H3P-positive nuclei) and brown melanocytes. […] Between 4 and 6 samples were counted for each stage and each condition. Similar numbers were obtained in immunohistochemistry performed on sections as in wholemounts and in fluorescent detection (i.e., reagent penetration and chromogenic staining are not confounding factors in H3P-positive cell detection). […]

[3] = system: XNr-1; assay: Left-sided XNr-1 expression by whole mount in situ hybridization; parameters: species or system Xenopus laevis; conditions: in vivo
Protocol: As outlined above, effects on asymmetry were initially evaluated by inspection of embryo morphology. […] Embryos were treated with the H^+-V-ATPase inhibitory compound concanamycin.
Whole mount in situ hybridization (WISH) on Xenopus was performed according to standard methods. DNA used to transcribe in situ hybridization probes were XNr-1 (Lohr et al., 1998, Developmental Genetics 23: 194-202; Lowe et al., 1996, Nature 381: 158-161); cShh (Levin et al., 1995, Cell 82: 803-814); cNodal (Levin et al., 1995, Cell 82: 803-814).

[4] = system: Vmem of Xenopus blastomeres; assay: Membrane voltage imaging of blastomeres with DiBAC4(3); assay type: in vivo, Xenopus laevis; conditions: control vs treated embryos
Text: Embryos marked with Alexa 647 dextran in the right ventral cell (RV) at the four cell stage (to allow orientation with respect to both axes) were monitored using DiBAC4(3) at the 4, 8, 16, and 32 cell stages. At 16 cells, we observed hyperpolarization of the RV quadrant, relative to the LV quadrant. DiBAC4(3) intensity on the left was greater than on the right. This pattern and its embryological timing are consistent with the self-referencing probe data, and with the hypothesis that higher net H^+ efflux from the right side results in a difference in membrane potential across the ventral midline.
We confirmed this in Xenopus blastomeres by imaging Vmem in vivo in control and concanamycin-treated embryos. Predicting that the membrane would depolarize if H^+-V-ATPase-based proton efflux was inhibited, we monitored Vmem using the voltage-reporting dye DiBAC4(3).
Bis-(1,3-[…])-trimethine oxanol (DiBAC4(3), Molecular Probes, Eugene, Oreg.) is a membrane-permeant, fluorescent molecule that accumulates inside a cell in proportion to the membrane voltage. Because it is anionic, the more depolarized a cell, the greater the accumulation of DiBAC4(3) and the greater the intensity of intracellular, relative to extracellular, fluorescence. […]. The dye was excited with 488 nm light from an argon laser and a 20 nm band of emission wavelengths centered at 515 was collected.

SMILES: C/C=C/[C@H]1O[C@@](O)([C@@H](C)[C@H](O)[C@H](C)[C@H]2OC(=O)/C(OC)=C/C(C)=C/[C@@H](C)[C@@H](O)[C@@H](CC)[C@@H](O)[C@H](C)C/C(C)=C/C=C/[C@@H]2OC)C[C@@H](O)[C@@H]1C [concanamycin]
- KCNK1 expression in the regeneration bud [1]: absent
- Average count of H3P-positive cells ([2]; 24 hpa): 51
- Individual counts of H3P-positive cells ([2]; 24 hpa): 79 and 26 and 45 and 53
- Average count of H3P-positive cells ([2]; 48 hpa): 49
- Individual counts of H3P-positive cells ([2]; 48 hpa): 39 and 58 and 51 and 46
- reduction in the number of proliferating cells ([2]; by 24 hpa, general (flank)): 3 fold
- change in number of proliferating cells in the mid-flank between 24 and 48 hpa ([2]; in vivo): does not change significantly
- left-sided gene expression of XNr-1 [3]: perturbed the normally left-sided gene expression
- effect on Vmem [4]: depolarizes Vmem
